Several values for one entry are separate records, joined by “and”; a condition that tells them apart may be missing. Identical values can stand only once.
What was measured:
[1] = target: SARS-CoV-2 Main Protease (SARS-CoV-2) (UniProt P0DTD1)
[2] = in vivo, iv, 0.5 mg/kg

Compound	IC50 [1]	AUC(0-inf) ([2]; rat)	AUC(0-t) ([2]; rat)	C0 ([2]; rat)	MRT inf ([2]; rat)	MRT last ([2]; rat)	Vd ([2]; rat)	clearance ([2]; rat)	half-life ([2]; rat)	CC50 (a549) [µM]	CC50 (vero) [µM]	AUC(0-inf) ([2]; mouse)	AUC(0-t) ([2]; mouse) [ng·h/mL]	C0 ([2]; mouse)	MRT inf ([2]; mouse)	MRT last ([2]; mouse)	Vd ([2]; mouse)	clearance ([2]; mouse)	half-life ([2]; mouse)
O=C(Nc1cncc2cc(F)ccc12)C1CCS(=O)(=O)c2ccc(Cl)cc21 (stereo not drawn)	0.77 µM	875 ng·h/mL and 1050 ng·h/mL	869 ng·h/mL and 1030 ng·h/mL	655 ng/mL and 704 ng/mL	118 min and 107 min	104 min and 111 min	1.03 L/kg and 0.95 L/kg	9.52 mL/min/kg and 8.12 mL/min/kg	69.6 min and 78 min										
O=C(Cc1cccc(Cl)c1)Nc1cnccc1C1CC1	7.17 µM	77 ng·h/mL and 54.5 ng·h/mL	74.1 ng·h/mL and 53.2 ng·h/mL	260 ng/mL and 176 ng/mL	20.7 min and 17.8 min	15.4 min and 18.5 min	1.92 L/kg and 3.14 L/kg	108 mL/min/kg and 153 mL/min/kg	12.5 min and 15.8 min										
N#CCC(=O)N1Cc2ccc(Cl)cc2C(C(=O)Nc2cncc3ccccc23)C1 (stereo not drawn)	0.204 µM	128 ng·h/mL and 148 ng·h/mL	124 ng·h/mL and 144 ng·h/mL	404 ng/mL and 370 ng/mL	28.7 min and 29.3 min	24.5 min and 25.6 min	1.61 L/kg and 1.36 L/kg	54.8 mL/min/kg and 47.4 mL/min/kg	25.4 min and 22 min										
O=C(Nc1cncc2cc(Cl)ccc12)C1CCS(=O)(=O)c2ccc(Cl)cc21 (stereo not drawn)	0.838 µM	2140 ng·h/mL and 2940 ng·h/mL	1940 ng·h/mL and 2700 ng·h/mL	769 ng/mL and 1200 ng/mL	193 min and 199 min	148 min and 151 min	0.774 L/kg and 0.556 L/kg	3.9 mL/min/kg and 2.9 mL/min/kg	141 min and 133 min										
Cc1nnc(CN2Cc3ccc(Cl)cc3C(C(=O)Nc3cncc4ccccc34)C2)[nH]1 (stereo not drawn)	0.75 µM	143 ng·h/mL and 182 ng·h/mL	142 ng·h/mL and 178 ng·h/mL	621 ng/mL and 588 ng/mL	28.7 min and 20.8 min	19.7 min and 25.8 min	1.21 L/kg and 1.32 L/kg	58.3 mL/min/kg and 46.8 mL/min/kg	18.7 min and 22.1 min										
O=C(Nc1cncc2ccncc12)C1CCNc2cc(Cl)c(Cl)cc21 (stereo not drawn)										> 9.99									
CS(=O)(=O)N1Cc2ccc(Cl)cc2C(C(=O)Nc2cncc3cccc(F)c23)C1 (stereo not drawn)	0.951 µM	110 ng·h/mL and 136 ng·h/mL	107 ng·h/mL and 134 ng·h/mL	332 ng/mL and 376 ng/mL	25.8 min and 25.9 min	22.9 min and 23.5 min	1.57 L/kg and 1.26 L/kg	60.6 mL/min/kg and 48.6 mL/min/kg	23.9 min and 20.4 min										
Cc1c(N)cncc1NC(=O)Cc1cccc(Cl)c1	4.22 µM	210 ng·h/mL and 187 ng·h/mL	209 ng·h/mL and 185 ng·h/mL	485 ng/mL and 446 ng/mL	28.8 min and 30.5 min	29.5 min and 27.3 min	1.21 L/kg and 1.28 L/kg	39.8 mL/min/kg and 44.6 mL/min/kg	28.2 min and 25 min										
CS(=O)(=O)c1ccc2cncc(NC(=O)C3CNC(=O)c4ccc(Cl)cc43)c2c1 (stereo not drawn)	2.74 µM	177 ng·h/mL and 160 ng·h/mL	175 ng·h/mL and 157 ng·h/mL	636 ng/mL and 540 ng/mL	25.6 min and 22 min	20.7 min and 22.8 min	1.08 L/kg and 1.38 L/kg	49 mL/min/kg and 54.2 mL/min/kg	19.3 min and 23.4 min										
O=C(Nc1cncc2ccccc12)C1CN(S(=O)(=O)CCO)Cc2ccc(Cl)cc21 (stereo not drawn)	0.232 µM	241 ng·h/mL and 283 ng·h/mL	236 ng·h/mL and 280 ng·h/mL	441 ng/mL and 590 ng/mL	56.2 min and 49.7 min	44.2 min and 52.6 min	1.72 L/kg and 1.66 L/kg	34.6 mL/min/kg and 29.6 mL/min/kg	47.1 min and 72.6 min										
COC(=O)N1Cc2ccc(Cl)cc2C(C(=O)Nc2cncc3ccccc23)C1 (stereo not drawn)	0.224 µM	152 ng·h/mL and 94.2 ng·h/mL	150 ng·h/mL and 93.6 ng·h/mL	411 ng/mL and 345 ng/mL	20.4 min and 24.1 min	22.5 min and 19.4 min	1.32 L/kg and 1.82 L/kg	54.9 mL/min/kg and 88.6 mL/min/kg	20 min and 18.2 min										
CNS(=O)(=O)N1Cc2ccc(Cl)cc2C(C(=O)Nc2cncc3ccccc23)C1 (stereo not drawn)	0.149 µM	185 ng·h/mL and 255 ng·h/mL and 157 ng·h/mL	183 ng·h/mL and 254 ng·h/mL and 155 ng·h/mL	507 ng/mL and 850 ng/mL and 519 ng/mL	31.6 min and 38.9 min and 23.9 min	36.1 min and 30.6 min and 22.1 min	1.75 L/kg and 1.07 L/kg and 1.5 L/kg	45.1 mL/min/kg and 33.3 mL/min/kg and 62.7 mL/min/kg	41 min and 32.2 min and 20 min										
C=CC(=O)N(C(=O)[C@H]1CCOc2ccc(Cl)cc21)c1cncc2ccccc12 (stereo in doubt)										> 9.99	> 9.99								
C=CC(=O)N(C(=O)[C@@H]1CCOc2ccc(Cl)cc21)c1cncc2ccccc12 (stereo in doubt)										> 9.99	> 9.99								
N#Cc1ncc(NC(=O)Cc2cccc(Cl)c2)c2ccccc12	65.9 µM	242 ng·h/mL and 224 ng·h/mL	241 ng·h/mL and 222 ng·h/mL	809 ng/mL and 728 ng/mL	28.6 min and 29.3 min	28.2 min and 26.5 min	1.17 L/kg and 1.23 L/kg	39.9 mL/min/kg and 43.2 mL/min/kg	35.3 min and 42.1 min										
O=C(Cc1cccc(Cl)c1)Nc1cncc2c(F)cccc12	0.89 µM	140 ng·h/mL and 138 ng·h/mL	139 ng·h/mL and 136 ng·h/mL	515 ng/mL and 498 ng/mL	19.8 min and 20.1 min	19.1 min and 18.7 min	1.02 L/kg	50.8 mL/min/kg and 51.6 mL/min/kg	17.4 min and 18.2 min										
O=C(Cc1cccc(Cl)c1)Nc1cnn2ccccc12	11.3 µM	209 ng·h/mL and 179 ng·h/mL	201 ng·h/mL and 176 ng·h/mL	652 ng/mL and 621 ng/mL	31.1 min	25.4 min and 27.5 min	1.24 L/kg and 1.44 L/kg	39.8 mL/min/kg and 46.6 mL/min/kg	29.4 min and 33.7 min										
NC(=O)c1cc2c(NC(=O)C3CCOc4ccc(Cl)cc43)cncc2s1 (stereo not drawn)	0.761 µM	488 ng·h/mL and 612 ng·h/mL	485 ng·h/mL and 604 ng·h/mL	706 ng/mL and 898 ng/mL	77.4 min and 69 min	65.4 min and 70.2 min	1.18 L/kg and 1.06 L/kg	17.1 mL/min/kg and 13.7 mL/min/kg	75 min and 84 min										
O=C1NCC(C(=O)Nc2cncc3ccccc23)c2cc(Cl)ccc21 (stereo not drawn)	0.208 µM	377 ng·h/mL and 428 ng·h/mL and 182 ng·h/mL	374 ng·h/mL and 422 ng·h/mL and 180 ng·h/mL	443 ng/mL and 648 ng/mL and 439 ng/mL	57.1 min and 75 min and 37.4 min	71.4 min and 53 min and 35 min	1.66 L/kg and 1.12 L/kg and 1.75 L/kg	22.1 mL/min/kg and 19.5 mL/min/kg and 46.8 mL/min/kg	64.8 min and 52 min and 34.7 min										
COC1(C(=O)Nc2cncc3ccc(S(C)(=O)=O)cc23)CCOc2ccc(Cl)cc21 (stereo not drawn)	0.426 µM and 0.423 µM											51.9 ng·h/mL and 61.9 ng·h/mL	50.3	142 ng/mL and 157 ng/mL	31.3 min and 26.9 min	27.4 min and 24.5 min	5.03 L/kg and 3.65 L/kg	161 mL/min/kg and 135 mL/min/kg	25.3 min and 22.1 min
